# System: 991263-137-R1-J2-PDC complex spheroid viability
# Test: Anticancer human tumor 991263-137-R1-J2-PDC patient-derived colon adenocarcinoma cell line growth inhibition [POLQ]
# Settings: for IC50: curve of first compound; for viability, T/C: stronger effect = lower value
# Summary of the method: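 Growth inhibition in 3D: complex spheroids (tumor PDC, HUVEC, MSC) treated with POLQ inhibitor combinations; where Cmax unknown, highest tested concentration 10 microM, except SN-38 at 1 microM.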
# [1] = second compound 0.0316 µM, first compound 0.0316 µM
# [2] = second compound 0.0316 µM, first compound 0.1 µM
# [3] = second compound 0.1 µM, first compound 0.0316 µM
# [4] = second compound 0.1 µM, first compound 0.1 µM
# [5] = second compound 0.316 µM, first compound 0.0316 µM
# [6] = second compound 0.316 µM, first compound 0.1 µM
# [7] = second compound 1 µM, first compound 0.0316 µM
# [8] = second compound 1 µM, first compound 0.1 µM
# [9] = second compound 3.16 µM, first compound 0.0316 µM
# [10] = second compound 3.16 µM, first compound 0.1 µM
# [11] = second compound 10 µM, first compound 0.0316 µM
# [12] = second compound 10 µM, first compound 0.1 µM
# [13] = second compound 0.0316 µM, first compound 0.316 µM
# [14] = second compound 0.0316 µM, first compound 1 µM
# [15] = second compound 0.0316 µM, first compound 3.16 µM
# [16] = second compound 0.0316 µM, first compound 10 µM
# [17] = second compound 0.1 µM, first compound 0.316 µM
# [18] = second compound 0.1 µM, first compound 1 µM
# [19] = second compound 0.1 µM, first compound 3.16 µM
# [20] = second compound 0.1 µM, first compound 10 µM
# [21] = second compound 0.316 µM, first compound 0.316 µM
# [22] = second compound 0.316 µM, first compound 1 µM
# [23] = second compound 0.316 µM, first compound 3.16 µM
# [24] = second compound 0.316 µM, first compound 10 µM
# [25] = second compound 1 µM, first compound 0.316 µM
# [26] = second compound 1 µM, first compound 1 µM
# [27] = second compound 1 µM, first compound 3.16 µM
# [28] = second compound 1 µM, first compound 10 µM
# [29] = second compound 3.16 µM, first compound 0.316 µM
# [30] = second compound 3.16 µM, first compound 1 µM
# [31] = second compound 3.16 µM, first compound 3.16 µM
# [32] = second compound 3.16 µM, first compound 10 µM
# [33] = second compound 10 µM, first compound 0.316 µM
# [34] = second compound 10 µM, first compound 1 µM
# [35] = second compound 10 µM, first compound 3.16 µM
# [36] = second compound 10 µM, first compound 10 µM
# 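Note: spheroids exposed to compounds for 7 days before readout.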
# 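Throughout, for viability, T/C: 100% = DMSO vehicle control viability.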
smiles,measurement,setting,value
CC[C@@]1(O)C(=O)OCc2c1cc1n(c2=O)Cc2cc3c(CN(C)C)c(O)ccc3nc2-1 + Nc1ccc(C#CCN(C(=O)Cc2ncc(C(F)(F)F)cc2C(F)(F)F)c2ccc(F)cc2)nn1,IC50,second compound 0.0316 µM,> 0.1 µM
same,IC50,second compound 0.1 µM,> 0.1 µM
same,IC50,second compound 0.316 µM,> 0.1 µM
same,IC50,second compound 1 µM,> 0.1 µM
same,IC50,second compound 3.16 µM,> 0.1 µM
same,IC50,second compound 10 µM,> 0.1 µM
same,"viability, T/C","second compound 0.0316 µM, first compound 0.000316 µM",94.8%
same,"viability, T/C","second compound 0.0316 µM, first compound 0.001 µM",92.6%
same,"viability, T/C","second compound 0.0316 µM, first compound 0.00316 µM",92.4%
same,"viability, T/C","second compound 0.0316 µM, first compound 0.01 µM",101%
same,"viability, T/C",[1],99.8%
same,"viability, T/C",[2],80.2%
same,"viability, T/C","second compound 0.1 µM, first compound 0.000316 µM",111%
same,"viability, T/C","second compound 0.1 µM, first compound 0.001 µM",102%
same,"viability, T/C","second compound 0.1 µM, first compound 0.00316 µM",101%
same,"viability, T/C","second compound 0.1 µM, first compound 0.01 µM",94.6%
same,"viability, T/C",[3],101%
same,"viability, T/C",[4],79.8%
same,"viability, T/C","second compound 0.316 µM, first compound 0.000316 µM",108%
same,"viability, T/C","second compound 0.316 µM, first compound 0.001 µM",109%
same,"viability, T/C","second compound 0.316 µM, first compound 0.00316 µM",95.4%
same,"viability, T/C","second compound 0.316 µM, first compound 0.01 µM",107%
same,"viability, T/C",[5],104%
same,"viability, T/C",[6],76.8%
same,"viability, T/C","second compound 1 µM, first compound 0.000316 µM",104%
same,"viability, T/C","second compound 1 µM, first compound 0.001 µM",106%
same,"viability, T/C","second compound 1 µM, first compound 0.00316 µM",101%
same,"viability, T/C","second compound 1 µM, first compound 0.01 µM",101%
same,"viability, T/C",[7],101%
same,"viability, T/C",[8],84.3%
same,"viability, T/C","second compound 3.16 µM, first compound 0.000316 µM",102%
same,"viability, T/C","second compound 3.16 µM, first compound 0.001 µM",94.9%
same,"viability, T/C","second compound 3.16 µM, first compound 0.00316 µM",105%
same,"viability, T/C","second compound 3.16 µM, first compound 0.01 µM",93.1%
same,"viability, T/C",[9],93.6%
same,"viability, T/C",[10],65.6%
same,"viability, T/C","second compound 10 µM, first compound 0.000316 µM",102%
same,"viability, T/C","second compound 10 µM, first compound 0.001 µM",112%
same,"viability, T/C","second compound 10 µM, first compound 0.00316 µM",107%
same,"viability, T/C","second compound 10 µM, first compound 0.01 µM",88.1%
same,"viability, T/C",[11],91.1%
same,"viability, T/C",[12],66.6%
COc1cc(C2c3cc4c(cc3C(OC3OC5COC(C)OC5C(O)C3O)C3COC(=O)C23)OCO4)cc(OC)c1O (stereo unspecified) + COC1C(OC(N)=O)C(O)C(Oc2ccc3c(O)c(NC(=O)c4ccc(O)c(CC=C(C)C)c4)c(=O)oc3c2C)OC1(C)C,IC50,second compound 0.0316 µM,> 10 µM
same,IC50,second compound 0.1 µM,> 10 µM
same,IC50,second compound 0.316 µM,> 10 µM
same,IC50,second compound 1 µM,> 10 µM
same,IC50,second compound 3.16 µM,> 10 µM
same,IC50,second compound 10 µM,> 10 µM
same,"viability, T/C",[1],120%
same,"viability, T/C",[2],105%
same,"viability, T/C",[13],98.9%
same,"viability, T/C",[14],94.9%
same,"viability, T/C",[15],98.2%
same,"viability, T/C",[16],76.1%
same,"viability, T/C",[3],118%
same,"viability, T/C",[4],108%
same,"viability, T/C",[17],118%
same,"viability, T/C",[18],92%
same,"viability, T/C",[19],95.9%
same,"viability, T/C",[20],83.3%
same,"viability, T/C",[5],95.7%
same,"viability, T/C",[6],104%
same,"viability, T/C",[21],96.1%
same,"viability, T/C",[22],90.3%
same,"viability, T/C",[23],84.8%
same,"viability, T/C",[24],73.1%
same,"viability, T/C",[7],107%
same,"viability, T/C",[8],99.1%
same,"viability, T/C",[25],100%
same,"viability, T/C",[26],83.2%
same,"viability, T/C",[27],106%
same,"viability, T/C",[28],94%
same,"viability, T/C",[9],96.2%
same,"viability, T/C",[10],113%
same,"viability, T/C",[29],109%
same,"viability, T/C",[30],115%
same,"viability, T/C",[31],97.6%
same,"viability, T/C",[32],72.3%
same,"viability, T/C",[11],83.9%
same,"viability, T/C",[12],115%
same,"viability, T/C",[33],98.9%
same,"viability, T/C",[34],91.2%
same,"viability, T/C",[35],101%
same,"viability, T/C",[36],80.8%
CC1COCCN1c1cc(C2(O)CC3CCC(C2)O3)c2cnn(-c3ccn[nH]3)c2n1 (stereo unspecified) + COC1C(OC(N)=O)C(O)C(Oc2ccc3c(O)c(NC(=O)c4ccc(O)c(CC=C(C)C)c4)c(=O)oc3c2C)OC1(C)C,IC50,second compound 0.0316 µM,1.46 µM
same,IC50,second compound 0.1 µM,1.93 µM
same,IC50,second compound 0.316 µM,0.947 µM
same,IC50,second compound 1 µM,1.58 µM
same,IC50,second compound 3.16 µM,1.87 µM
same,IC50,second compound 10 µM,1.45 µM
same,"viability, T/C",[1],85.5%
same,"viability, T/C",[2],95.5%
same,"viability, T/C",[13],81.5%
same,"viability, T/C",[14],58.6%
same,"viability, T/C",[15],33.2%
same,"viability, T/C",[16],29.4%
same,"viability, T/C",[3],102%
same,"viability, T/C",[4],95.3%
same,"viability, T/C",[17],80.4%
same,"viability, T/C",[18],64.8%
same,"viability, T/C",[19],39%
same,"viability, T/C",[20],25%
same,"viability, T/C",[5],106%
same,"viability, T/C",[6],100%
same,"viability, T/C",[21],78.9%
same,"viability, T/C",[22],50.5%
same,"viability, T/C",[23],26.5%
same,"viability, T/C",[24],26.1%
same,"viability, T/C",[7],104%
same,"viability, T/C",[8],106%
same,"viability, T/C",[25],85.7%
same,"viability, T/C",[26],59.8%
same,"viability, T/C",[27],36.2%
same,"viability, T/C",[28],23.7%
same,"viability, T/C",[9],89.8%
same,"viability, T/C",[10],76.4%
same,"viability, T/C",[29],73.9%
same,"viability, T/C",[30],56.1%
same,"viability, T/C",[31],46%
same,"viability, T/C",[32],21.6%
same,"viability, T/C",[11],84.7%
same,"viability, T/C",[12],95.8%
same,"viability, T/C",[33],74.3%
same,"viability, T/C",[34],56.4%
same,"viability, T/C",[35],36.7%
same,"viability, T/C",[36],21.2%

# Source: PubChem BioAssay AID1963828 (Molecular Pharmacology Branch, DTP, NCI, 2024)
